Experimental data from the supplement of paper PMC10307832.

Key:
Test in all cases: relative viability (nuclei count vs DMSO), 5 days (fraction); higher = more cells survive
[1] = compound: COC1=CC=C(C=C1)CN2C=CC3=C2C=C(C=C3)C(=O)NO + Cc1cc(Nc2cc(N3CCN(C)CC3)nc(Sc3ccc(NC(=O)C4CC4)cc3)n2)n[nH]1 [Tozasertib] (partner 0.1 µM)
How it was run: (§1)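 Lung cancer cell lines in 1536-well plates were dosed by pin tool the day after seeding, either with one drug alone or with a fixed anchor-drug dose plus five library-drug doses (not always all listed) in √10 steps. After 5 days, cells were fixed and their nuclei stained in one step (final 0.05% Triton X-100, 1% formaldehyde, 1 ug/ml Hoechst), then counted on 4× images. Relative viability is the nuclei count in treated wells divided by that in vehicle wells. Values are medians of duplicate plates.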

Veliparib + Palbociclib = compound: C[C@]1(c2nc3c(C(N)=O)cccc3[nH]2)CCCN1 [Veliparib] + CC(=O)c1c(C)c2cnc(Nc3ccc(N4CCNCC4)cn3)nc2n(C2CCCC2)c1=O [Palbociclib] (partner 0.5 µM)
How it was run: as §1

Veliparib + Navitoclax = compound: C[C@]1(c2nc3c(C(N)=O)cccc3[nH]2)CCCN1 [Veliparib] + CC1(C)CCC(c2ccc(Cl)cc2)=C(CN2CCN(c3ccc(C(=O)NS(=O)(=O)c4ccc(N[C@H](CCN5CCOCC5)CSc5ccccc5)c(S(=O)(=O)C(F)(F)F)c4)cc3)CC2)C1 [Navitoclax] (partner 0.5 µM)
How it was run: as §1

Veliparib + Linsitinib = compound: C[C@]1(c2nc3c(C(N)=O)cccc3[nH]2)CCCN1 [Veliparib] + C[C@]1(O)C[C@@H](c2nc(-c3ccc4ccc(-c5ccccc5)nc4c3)c3c(N)nccn32)C1 [Linsitinib] (partner 1 µM)
How it was run: as §1

| Cell Line | relative viability ([1]; first compound 0.08 µM) | relative viability ([1]; first compound 0.253 µM) | relative viability ([1]; first compound 0.8 µM) | relative viability ([1]; first compound 2.53 µM) | relative viability ([1]; first compound 8 µM) | relative viability (Veliparib + Palbociclib; first compound 0.02 µM) | relative viability (Veliparib + Palbociclib; first compound 0.06325 µM) | relative viability (Veliparib + Palbociclib; first compound 0.2 µM) | relative viability (Veliparib + Palbociclib; first compound 0.6325 µM) | relative viability (Veliparib + Palbociclib; first compound 2 µM) | relative viability (Veliparib + Navitoclax; first compound 0.02 µM) | relative viability (Veliparib + Navitoclax; first compound 0.06325 µM) | relative viability (Veliparib + Navitoclax; first compound 0.2 µM) | relative viability (Veliparib + Navitoclax; first compound 0.6325 µM) | relative viability (Veliparib + Navitoclax; first compound 2 µM) | relative viability (Veliparib + Linsitinib; first compound 0.02 µM) | relative viability (Veliparib + Linsitinib; first compound 0.06325 µM) | relative viability (Veliparib + Linsitinib; first compound 0.2 µM) | relative viability (Veliparib + Linsitinib; first compound 0.6325 µM) | relative viability (Veliparib + Linsitinib; first compound 2 µM) |
| --- | --- | --- | --- | --- | --- | --- | --- | --- | --- | --- | --- | --- | --- | --- | --- | --- | --- | --- | --- | --- |
| NCI-H23 | 0.292 | 0.352 | 0.358 | 0.301 | 0.281 | 0.546 | 0.428 | 0.445 | 0.486 | 0.516 | 0.884 | 0.772 | 0.828 | 0.81 | 0.791 | 0.775 | 0.504 | 0.574 | 0.505 | 0.65 |
| Calu-6 | – | – | – | – | – | – | – | – | – | – | 0.946 | 0.871 | 0.914 | 0.824 | 0.867 | 0.582 | 0.826 | 0.999 | 0.963 | 0.987 |
| NCI-H1623 | 0.407 | 0.411 | 0.421 | 0.42 | 0.436 | – | – | – | – | – | – | – | – | – | – | – | – | – | – | – |
| LC-2-ad | 0.384 | 0.46 | 0.485 | 0.411 | 0.382 | 0.485 | 0.496 | 0.508 | 0.477 | 0.505 | – | 0.446 | 0.405 | 0.312 | 0.497 | – | 0.83 | 0.787 | 0.819 | 0.786 |
| HARA | – | 0.109 | 0.114 | 0.128 | 0.0964 | 0.352 | 0.174 | 0.308 | 0.327 | 0.265 | 1.17 | 1.09 | 1.1 | 1.08 | 1.15 | 1.15 | 0.992 | 0.908 | 0.743 | 1.07 |
| NCI-H1993 | 0.568 | 0.627 | 0.517 | 0.6 | 0.567 | – | 0.569 | 0.59 | 0.614 | 0.636 | 0.939 | 0.898 | 1.07 | 0.902 | 0.959 | 0.7 | 0.683 | 0.738 | 0.7 | 0.726 |
| SK-MES-1 | 0.816 | 0.895 | 0.868 | 0.874 | 0.81 | 0.334 | 0.278 | 0.329 | 0.307 | 0.297 | 1.27 | 1.16 | 1.3 | 1.06 | 1.26 | 1.05 | 1.03 | 1.06 | 0.913 | 1.09 |
| NCI-H2023 | 0.296 | 0.314 | 0.415 | 0.389 | 0.396 | – | 0.329 | 0.391 | 0.346 | 0.398 | 1.04 | 0.948 | 0.922 | 0.926 | 0.943 | 0.712 | 0.692 | 0.677 | 0.538 | 0.658 |
| EMC-BAC-2 | 0.196 | 0.286 | 0.287 | 0.283 | 0.237 | 0.527 | 0.487 | 0.512 | 0.486 | 0.544 | 1.2 | 1.18 | 1.15 | 1.14 | 1.08 | 0.841 | 0.801 | 0.886 | 0.793 | 0.828 |
| H3255 | 0.457 | 0.393 | 0.639 | 0.497 | 0.604 | 0.344 | 0.309 | 0.298 | 0.304 | 0.358 | 0.479 | 0.445 | 0.537 | 0.477 | 0.518 | 0.882 | 0.981 | 0.953 | 0.833 | 0.981 |
| SK-LU-1 | 0.279 | 0.339 | 0.325 | 0.337 | 0.3 | 0.426 | 0.379 | 0.394 | 0.362 | 0.378 | 0.985 | 1.05 | 0.959 | 0.804 | 0.793 | 1.2 | 1.01 | 1.17 | 1.06 | 1.17 |
| BEN | 0.442 | 0.472 | 0.437 | 0.495 | 0.445 | 0.466 | 0.491 | 0.479 | 0.5 | 0.465 | 0.0726 | 0.0807 | 0.0698 | 0.0678 | 0.0746 | 0.803 | 0.875 | 1.15 | 0.928 | 0.946 |
| NCI-H727 | 0.592 | 0.529 | 0.772 | 0.602 | 0.625 | 0.7 | 0.689 | 0.624 | 0.661 | 0.605 | 0.4 | 0.492 | 0.504 | 0.369 | 0.467 | 0.284 | 0.219 | 0.253 | 0.293 | 0.24 |
| NCI-H1755 | 0.512 | 0.688 | 0.619 | 0.584 | 0.524 | 0.46 | 0.469 | 0.442 | 0.455 | 0.395 | 1.02 | 0.946 | 0.939 | 0.925 | 0.967 | 1 | 0.972 | 0.972 | 0.968 | 0.963 |
| NCI-H1944 | – | 0.262 | 0.261 | 0.262 | 0.234 | 0.302 | 0.348 | 0.355 | 0.324 | 0.329 | 0.99 | 0.996 | 0.929 | 0.907 | 0.899 | 1.21 | 1.17 | 1.06 | 1.19 | 1.12 |
| NCI-H322M | – | 0.497 | 0.525 | 0.485 | 0.439 | – | 0.491 | 0.48 | 0.514 | 0.49 | 1.21 | 1.04 | 1.19 | 1.23 | 1.2 | 1.03 | 0.864 | 0.885 | 0.826 | 0.972 |
| NCI-H647 | 0.224 | 0.237 | 0.314 | 0.262 | 0.267 | 0.392 | 0.325 | 0.425 | 0.423 | 0.469 | 1.13 | 1.14 | 1.14 | 1.03 | 1.1 | 1.09 | 1.01 | 0.989 | 1.02 | 1.09 |
| LXF-289 | – | 0.231 | 0.164 | 0.195 | 0.182 | 0.577 | 0.574 | 0.554 | 0.601 | 0.649 | 0.932 | 0.948 | 0.931 | 0.888 | 0.968 | 0.93 | 0.955 | 0.954 | 0.922 | 0.925 |
